According to PubChem BioAssay AID2060892 (Molecular Pharmacology Branch, DTP, NCI, 2025):

Tested on: HOP-62 complex spheroids with HUVEC/MSC, viability
Assay: Anticancer human tumor HOP-62 cell line growth inhibition [RAS];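 also: spheroids exposed to agents for seven days before readout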;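 as to viability, T/C: 100% = DMSO vehicle control viability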
Conditions: for IC50: curve of first compound; for viability, T/C: stronger effect = lower value
In short: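 Multi-cell-type spheroids: tumor cells plus HUVEC endothelial cells and mesenchymal stem cells. RAS-pathway inhibitors were combined with targeted agents, each dosed in half-log steps down from clinical Cmax, or from 10 microM when Cmax was unknown.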

[1] = second compound 0.000949 µM, first compound 0.0316 µM
[2] = second compound 0.000949 µM, first compound 0.1 µM
[3] = second compound 0.000949 µM, first compound 0.316 µM
[4] = second compound 0.000949 µM, first compound 1 µM
[5] = second compound 0.000949 µM, first compound 3.16 µM
[6] = second compound 0.000949 µM, first compound 10 µM
[7] = second compound 0.003 µM, first compound 0.0316 µM
[8] = second compound 0.003 µM, first compound 0.1 µM
[9] = second compound 0.003 µM, first compound 0.316 µM
[10] = second compound 0.003 µM, first compound 1 µM
[11] = second compound 0.003 µM, first compound 3.16 µM
[12] = second compound 0.003 µM, first compound 10 µM
[13] = second compound 0.00949 µM, first compound 0.0316 µM
[14] = second compound 0.00949 µM, first compound 0.1 µM
[15] = second compound 0.00949 µM, first compound 0.316 µM
[16] = second compound 0.00949 µM, first compound 1 µM
[17] = second compound 0.00949 µM, first compound 3.16 µM
[18] = second compound 0.00949 µM, first compound 10 µM
[19] = second compound 0.03 µM, first compound 0.0316 µM
[20] = second compound 0.03 µM, first compound 0.1 µM
[21] = second compound 0.03 µM, first compound 0.316 µM
[22] = second compound 0.03 µM, first compound 1 µM
[23] = second compound 0.03 µM, first compound 3.16 µM
[24] = second compound 0.03 µM, first compound 10 µM
[25] = second compound 0.0949 µM, first compound 0.0316 µM
[26] = second compound 0.0949 µM, first compound 0.1 µM
[27] = second compound 0.0949 µM, first compound 0.316 µM
[28] = second compound 0.0949 µM, first compound 1 µM
[29] = second compound 0.0949 µM, first compound 3.16 µM
[30] = second compound 0.0949 µM, first compound 10 µM
[31] = second compound 0.3 µM, first compound 0.0316 µM
[32] = second compound 0.3 µM, first compound 0.1 µM
[33] = second compound 0.3 µM, first compound 0.316 µM
[34] = second compound 0.3 µM, first compound 1 µM
[35] = second compound 0.3 µM, first compound 3.16 µM
[36] = second compound 0.3 µM, first compound 10 µM

`CC(Nc1ccc2c(c1)OCCn1cc(N3C(=O)OCC3C(F)F)nc1-2)C(N)=O` (centres undefined) + CCn1c(-c2cccnc2C(C)OC)c2c3cc(ccc31)N1CCOC(CC(NC(=O)C(C(C)C)N(C)C(=O)C3(F)CCN(C(=O)C#CC(C)(C)N(C)C)CC3)C(=O)N3CCCC(N3)C(=O)OCC(C)(C)C2)C1 showed an IC50 (second compound 0.000949 µM) of 659 nM, an IC50 (second compound 0.003 µM) of 649 nM and an IC50 (second compound 0.00949 µM) of 326 nM. It also gave an IC50 (second compound 0.03 µM) of 260 nM, an IC50 (second compound 0.0949 µM) of 182 nM and an IC50 (second compound 0.3 µM) of 152 nM. The viability, T/C [1] was 99.7%, the viability, T/C [2] was 75.4% and the viability, T/C [3] was 45.1%. The viability, T/C [4] was 54.2%, the viability, T/C [5] was 50.6% and the viability, T/C [6] was 23.9%. For the same molecule, the viability, T/C [7] was 87%, the viability, T/C [8] was 85.9% and the viability, T/C [9] was 42.3%. The viability, T/C [10] was 50.9%, the viability, T/C [11] was 36.6% and the viability, T/C [12] was 19.6%. The viability, T/C [13] was 99.3%, the viability, T/C [14] was 60.1% and the viability, T/C [15] was 51.9%. For the same molecule, the viability, T/C [16] was 46.9%, the viability, T/C [17] was 32.1% and the viability, T/C [18] was 22.4%. For the same molecule, the viability, T/C [19] was 124%, the viability, T/C [20] was 59.4% and the viability, T/C [21] was 55.2%. It also gave a viability, T/C [22] of 42.3%, a viability, T/C [23] of 25.6% and a viability, T/C [24] of 22.8%. For the same molecule, the viability, T/C [25] was 103%, the viability, T/C [26] was 53.9% and the viability, T/C [27] was 43.9%. It also gave a viability, T/C [28] of 37%, a viability, T/C [29] of 20.1% and a viability, T/C [30] of 19%. The viability, T/C [31] was 58.5%, the viability, T/C [32] was 49.8% and the viability, T/C [33] was 47.9%. For the same molecule, the viability, T/C [34] was 30.2%, the viability, T/C [35] was 25.2% and the viability, T/C [36] was 19.1%.

Work on `C[C@@H](NC(=O)c1ncnc(N)c1Cl)c1ncc(C(=O)Nc2cc(C(F)(F)F)c(Cl)cn2)s1` + CCn1c(-c2cccnc2C(C)OC)c2c3cc(ccc31)N1CCOC(CC(NC(=O)C(C(C)C)N(C)C(=O)C3(F)CCN(C(=O)C#CC(C)(C)N(C)C)CC3)C(=O)N3CCCC(N3)C(=O)OCC(C)(C)C2)C1 yielded an IC50 (second compound 0.000949 µM) greater than 10000 nM, an IC50 (second compound 0.003 µM) greater than 10000 nM and an IC50 (second compound 0.00949 µM) greater than 10000 nM. For the same molecule, the IC50 (second compound 0.03 µM) was greater than 10000 nM, the IC50 (second compound 0.0949 µM) was greater than 10000 nM and the IC50 (second compound 0.3 µM) was greater than 10000 nM. The viability, T/C [1] was 113%, the viability, T/C [2] was 93% and the viability, T/C [3] was 86.2%. It also gave a viability, T/C [4] of 109%, a viability, T/C [5] of 108% and a viability, T/C [6] of 65.3%. The viability, T/C [7] was 115%, the viability, T/C [8] was 103% and the viability, T/C [9] was 87.9%. It also gave a viability, T/C [10] of 108%, a viability, T/C [11] of 87% and a viability, T/C [12] of 67.7%. The viability, T/C [13] was 95%, the viability, T/C [14] was 94.8% and the viability, T/C [15] was 85.3%. The viability, T/C [16] was 96.2%, the viability, T/C [17] was 77.7% and the viability, T/C [18] was 70.6%. The viability, T/C [19] was 96.8%, the viability, T/C [20] was 89.6% and the viability, T/C [21] was 95.8%. For the same molecule, the viability, T/C [22] was 82.4%, the viability, T/C [23] was 64.5% and the viability, T/C [24] was 76%. It also gave a viability, T/C [25] of 94.7%, a viability, T/C [26] of 90.8% and a viability, T/C [27] of 81.7%. The viability, T/C [28] was 80.3%, the viability, T/C [29] was 68.1% and the viability, T/C [30] was 75.7%. For the same molecule, the viability, T/C [31] was 86.3%, the viability, T/C [32] was 83.9% and the viability, T/C [33] was 77.5%. For the same molecule, the viability, T/C [34] was 74.4%, the viability, T/C [35] was 68.9% and the viability, T/C [36] was 71.2%.
